Experimental data taken from publication PMC3293837, “Biophysical Property and Broad Anti-HIV Activity of Albuvirtide, a 3-Maleimimidopropionic Acid-Modified Peptide Fusion Inhibitor” (PLoS ONE, 2012).
Read-outs that look alike come from different tables or passages of the source.

Columns and labels:
[1] = tested on: HIV-1NL4-3 Env-pseudotyped virus; type: cell-based; details: TZM-bl
Description: (§2) HIV-1 pseudoviruses were generated as described previously [32], [55]–[56]. Briefly, 293T cells (5×10^6 cells in 15 ml of growth medium in a T-75 culture flask) were cotransfected with 10 µg of an Env-expressing plasmid and 20 µg of a backbone plasmid pSG3deltaEnv that encodes Env-defective, luciferase-expressing HIV-1 genome using Lipofectamine 2000 reagent (Invitrogen). Pseudovirus-containing culture supernatants were harvested 48 hours after transfection and filtered by 0.45-mm pore size, and stored at −80°C in 1-ml aliquots until use. The 50% tissue culture infectious dose (TCID50) of a single thawed aliquot of each pseudovirus batch was determined in TZM-bl cells. […] Briefly, the peptides were prepared with ten series dilutions in a 3-fold stepwise manner and mixed with 100 TCID50 viruses and incubated 1 hour at room temperature. The mixture was added to TZM-bl cells (10^4/well) and incubation at 37°C for 48 hours. Luciferase activity was measured using luciferase assay regents (Promega, Medison, WI) and a Luminescence Counter (Promega) according to the manufacture's instructions.

[2] = tested on: HIV-1NL4-3 Q40H pseudovirus; type: cell-based; details: HIV-1NL4-3 Q40H; TZM-bl, 48 h; mean ± SD of three independent experiments
Description: (§3) The mutations were created using double-stranded DNA templates and selection of mutants with DpnI. For each mutation, the two primers contained the desired mutation and occupied the same starting and ending positions on opposite strands of the plasmid DNA. DNA synthesis was carried out by PCR in a 50-µL reaction volume using 1 µL of denatured plasmid template (1 ng/µL), 50 pmol of upper and lower primers and 5 U of high-fidelity thermostable polymerase PrimeStar (Takara, Dalian, China). PCR amplification was carried out for one cycle of denaturation at 98°C for 5 min, then 18 cycles of 98°C for 15 s and 68°C for 15 min, followed a final extension at 72°C for 10 min. The amplicons were treated with the restriction enzyme DpnI for 1 h at 37°C. DpnI-resistant molecules, which were rich in the desired mutants, were recovered by transforming Escherichia coli strain-DH5α to antibiotic resistance. The successful mutations were confirmed by sequencing.
as §2

[3] = tested on: YN192.31 pseudovirus (CRF01_AE); type: cell-based, HIV-1; details: YN192.31, CRF01_AE, R5; TZM-bl, 48 h; triplicate, mean ± SD of at least three independent experiments
Description: (§1) A panel of plasmids encoding HIV-1 Envs were obtained through the AIDS Research and Reference Reagent Program (ARRRP), Division of AIDS, NIAID, NIH, including subtype A Env clones pSVIII-92RW020.5 and 92UG037.8 from Dr. B.H. Hahn; subtype B Env clones SC422661.8, TRO.11 and AC10.0.29 from Drs. D. Montefiori, F. Gao and M. Li, pRHPA4259.7 and pREJO4541.67 from Drs. B.H. Hahn and J.F. Salazar-Gonzalez, and pCAAN5342.A2 from Drs. B.H. Hahn and D.L. Kothe; subtype C Env clones Du172.17 and Du422.1 from Drs. D. Montefiori, F. Gao, S. Abdool Karim and G. Ramjee, CAP45.2.00.G3 from Drs. L. Morris, K. Mlisana and D. Montefiori, ZM197M.PB7 from Drs. B.H. Hahn, Y. Li and J.F. Salazar-Gonzalez, ZM109F.PB4 from Drs. E. Hunter and C. Derdeyn. Six CRF07_BC Env clones (CH064.20, CH070.1, CH091.9, CH110.2, CH119.10 and CH120.6) were generous gifts by Dr. Y. Shao in the Chinese Center for Disease Control and Prevention, Beijing, China. A panel of Env clones derived from subtype B′ (B01, B02, B04, and 43-22), CRF01_AE (SHX335.24, YN192.31, AE01, AE03, GX2010.36, GX11.13, GX2010.36H, BJ5.11), and CRF07_BC (BC02, BC03, BC05, BC07, BC14, SC19-15, BJ22-5, YN148R-9, XJ50-6, HB5-3) were kindly provided by Dr. Y. Wang from the National Institute for the Control of Pharmaceutical and Biological Products, Beijing, China.

[4] = tested on: YN148r-9 pseudovirus (CRF07_BC); type: cell-based, HIV-1; details: YN148r-9, CRF07_BC, R5; TZM-bl, 48 h; triplicate, mean ± SD of at least three independent experiments
Description: as §1

[5] = tested on: HB5-3 pseudovirus (CRF07_BC); type: cell-based, HIV-1; details: HB5-3, CRF07_BC, R5; TZM-bl, 48 h; triplicate, mean ± SD of at least three independent experiments
Description: as §1

[6] = tested on: REJO4541 pseudovirus (subtype B); type: cell-based, HIV-1; details: R5, TZM-bl, 48 h, triplicate, mean ± SD of three independent experiments
Description: as §1

[7] = tested on: BC14 pseudovirus (CRF07_BC); type: cell-based, HIV-1; details: R5, TZM-bl, 48 h, triplicate, mean ± SD of at least three independent experiments
Description: as §1

[8] = tested on: BJ22-5 pseudovirus (CRF07_BC); type: cell-based, HIV-1; details: BJ22-5, CRF07_BC, R5; TZM-bl, 48 h; triplicate, mean ± SD of at least three independent experiments
Description: as §1

[9] = tested on: CH110 pseudovirus (CRF07_BC); type: cell-based, HIV-1; details: R5, TZM-bl, 48 h, triplicate, mean ± SD of at least three independent experiments
Description: as §1

[10] = tested on: SC19-15 pseudovirus (CRF07_BC); type: cell-based, HIV-1; details: SC19-15, CRF07_BC, R5; TZM-bl, 48 h; triplicate, mean ± SD of at least three independent experiments
Description: as §1

[11] = tested on: 92RW020 pseudovirus (subtype A); type: cell-based, HIV-1; details: 92RW020, subtype A, R5; TZM-bl, 48 h; triplicate, mean ± SD of three independent experiments
Description: as §1

[12] = tested on: BC05 pseudovirus (CRF07_BC); type: cell-based, HIV-1; details: R5, TZM-bl, 48 h, triplicate, mean ± SD of at least three independent experiments
Description: as §1

[13] = tested on: Du422.1 pseudovirus (subtype C); type: cell-based, HIV-1; details: Du422.1, subtype C, R5; TZM-bl, 48 h; triplicate, mean ± SD of three independent experiments
Description: as §1

[14] = tested on: CAP45.2.00.G3 pseudovirus (subtype C); type: cell-based, HIV-1; details: CAP45.2.00.G3, subtype C, R5; TZM-bl, 48 h; triplicate, mean ± SD of three independent experiments
Description: as §1

[15] = tested on: GX2010.36 pseudovirus (CRF01_AE); type: cell-based, HIV-1; details: GX2010.36, CRF01_AE, R5; TZM-bl, 48 h; triplicate, mean ± SD of at least three independent experiments
Description: as §1

[16] = tested on: CH120 pseudovirus (CRF07_BC); type: cell-based, HIV-1; details: R5, TZM-bl, 48 h, triplicate, mean ± SD of at least three independent experiments
Description: as §1

[17] = tested on: HIV-1; details: cited from earlier work
[18] = tested on: HIV-1NL4-3 D36G pseudovirus; type: cell-based
Description: as §2

[19] = tested on: HIV-1NL4-3 N43K pseudovirus; type: cell-based; details: HIV-1NL4-3 N43K; TZM-bl, 48 h; mean ± SD of three independent experiments
Description: as §3, §2

enfuvirtide showed an IC50 ([1]; Fig. 5A, 100 TCID50, 48 h 37°C, luciferase, mean, three independent experiments, read-out: mean IC50, virus entry) of 70.7 nM, an IC50 ([1]; HIV-1NL4-3 WT pseudovirus, Table 3, 48 h, mean ± SD of three independent experiments, read-out: IC50) of 62.5 ± 11.9 nM and an IC50 [2] of 731 ± 35.2 nM. The IC50 [3] was 68.5 ± 3.25 nM, the IC50 [4] was 131 ± 14.7 nM and the IC50 [5] was 23.1 ± 2.55 nM. The IC50 [6] was 78.1 ± 11.3 nM, the IC50 [7] was 109 ± 52.6 nM and the IC50 [8] was 25.8 ± 4.17 nM. It also gave an IC50 [9] of 18.6 ± 3.15 nM, an IC50 [10] of 7.61 ± 0.97 nM and an IC50 [11] of 25.4 ± 9.81 nM. It also gave an IC50 [12] of 4.39 ± 0.25 nM, an IC50 [13] of 28.4 ± 5.14 nM and an IC50 [14] of 96.2 ± 6.91 nM. For the same substance, the IC50 [15] was 18.1 ± 3.75 nM, the IC50 [16] was 50.4 ± 4.22 nM and the “inhibition of viral entry (in words)” value [17] was “low nanomolar concentration”. For the same substance, the “increase in sensitivity of D36G mutant” value ([18]; D36G relative to WT HIV-1NL4-3) was 8.3 fold, the IC50 ([18]; HIV-1NL4-3 D36G, TZM-bl, 48 h, mean ± SD of three independent experiments) was 7.5 ± 1.3 nM and the IC50 [19] was 262 ± 44.4 nM.
